Measurements published in US20100267561A1, “HERBICIDAL PYRIDAZINONE DERIVATIVES” (priority 2007, published 2010).

Assays:
Format in all cases: in vivo
[1] = tested on: green foxtail (Setaria viridis); assay: Test B pre-/postemergence plant response; details: for Foxtail, Green plant response rating: 8 g ai/ha
Excerpt: (§1) Seeds of plant species selected from blackgrass (Alopecurus myosuroides), downy bromegrass (Bromus tectorum), green foxtail (Setaria viridis), Italian ryegrass (Lolium multiflorum), wheat (Triticum aestivum), wild oat (Avena fatua), catchweed bedstraw (Galium aparine), bermudagrass (Cynodon dactylon), surinam grass (Brachiaria decumbens), cocklebur (Xanthium strumarium), corn (Zea mays), large crabgrass (Digitaria sanguinalis), woolly cupgrass (Eriochloa villosa), giant foxtail (Setaria faberii), goosegrass (Eleusine indica), johnsongrass (Sorghum halepense), kochia (Kochia scoparia), lambsquarters (Chenopodium album), morningglory (Ipomoea coccinea), eastern black (E.B.) nightshade (Solanum ptycanthum), yellow nutsedge (Cyperus esculentus), pigweed (Amaranthus retroflexus), common ragweed (Ambrosia elation), Russian thistle (Salsola iberica), soybean (Glycine max), common (oilseed) sunflower (Helianthus annuus), and velvetleaf (Abutilon theophrasti) were planted and treated preemergence with test chemicals formulated in a non-phytotoxic solvent mixture which included a surfactant.
(§2) At the same time, plants selected from these crop and weed species and also winter barley (Hordeum vulgare), canarygrass (Phalaris minor), chickweed (Stellaria media) and windgrass (Apera spica-venti) were treated with postemergence applications of some of the test chemicals formulated in the same manner. Plants ranged in height from 2 to 18 cm (1- to 4-leaf stage) for postemergence treatments.
(§3) Plant species in the flooded paddy test consisted of rice (Oryza sativa), umbrella sedge (Cyperus difformis), ducksalad (Heteranthera limosa) and barnyardgrass (Echinochloa crus-galli) grown to the 2-leaf stage for testing. At time of treatment, test pots were flooded to 3 cm above the soil surface, treated by application of test compounds directly to the paddy water, and then maintained at that water depth for the duration of the test. Treated plants and controls were maintained in a greenhouse for 13 to 15 days, after which time all species were compared to controls and visually evaluated. Plant response ratings, summarized in Table B, are based on a scale of 0 to 100 where 0 is no effect and 100 is complete control. A dash (-) response means no test result.

[2] = tested on: large crabgrass (Digitaria sanguinalis); assay: Test B pre-/postemergence plant response; details: for Crabgrass, Large plant response rating: 8 g ai/ha
Excerpt: as §1, §2, §3

[3] = tested on: johnsongrass (Sorghum halepense); assay: Test B pre-/postemergence plant response; details: for Johnsongrass plant response rating: 8 g ai/ha
Excerpt: as §1, §2, §3

[4] = tested on: pigweed (Amaranthus retroflexus); assay: Test B pre-/postemergence plant response; details: for Pigweed plant response rating: 8 g ai/ha
Excerpt: as §1, §2, §3

[5] = tested on: common ragweed (Ambrosia elation); assay: Test B pre-/postemergence plant response; details: for Ragweed plant response rating: 8 g ai/ha
Excerpt: as §1, §2, §3

[6] = tested on: velvetleaf (Abutilon theophrasti); assay: Test B pre-/postemergence plant response; details: for Velvetleaf plant response rating: 8 g ai/ha
Excerpt: as §1, §2, §3

[7] = tested on: eastern black (E.B.) nightshade (Solanum ptycanthum); assay: Test B pre-/postemergence plant response; details: Preemergence
Excerpt: as §1, §2, §3

[8] = tested on: woolly cupgrass (Eriochloa villosa); assay: Test B pre-/postemergence plant response; details: for Cupgrass, Woolly plant response rating: 8 g ai/ha
Excerpt: as §1, §2, §3

[9] = tested on: goosegrass (Eleusine indica); assay: Test B pre-/postemergence plant response; details: for Goosegrass plant response rating: 8 g ai/ha
Excerpt: as §1, §2, §3

[10] = tested on: common (oilseed) sunflower (Helianthus annuus); assay: Test B pre-/postemergence plant response; details: Preemergence
Excerpt: as §1, §2, §3

[11] = tested on: wild oat (Avena fatua); assay: Test B pre-/postemergence plant response; details: for Oat, Wild plant response rating: 8 g ai/ha
Excerpt: as §1, §2, §3

[12] = tested on: giant foxtail (Setaria faberii); assay: Test B pre-/postemergence plant response; details: for Foxtail, Giant plant response rating: 8 g ai/ha
Excerpt: as §1, §2, §3

[13] = tested on: rice (Oryza sativa); assay: Test B flooded paddy test plant response
Summary of the method: (§4)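 2-leaf plants; pots flooded 3 cm above soil; compound added to paddy water; depth maintained. Greenhouse 13–15 d. Visual rating vs controls, 0 (no effect) to 100 (complete control); dash = no result.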

[14] = tested on: ducksalad (Heteranthera limosa); assay: Test B flooded paddy test plant response
Summary of the method: as §4

[15] = Postemergence, 16 g ai/ha, scale 0 to 100
[16] = Postemergence, 31 g ai/ha, scale 0 to 100, 0 no effect, 100 complete control
[17] = Postemergence, 62 g ai/ha, scale 0 to 100, 0 no effect, 100 complete control
[18] = Preemergence, 16 g ai/ha, scale 0 to 100 (0 no effect, 100 complete control)
[19] = Preemergence, 31 g ai/ha, 0 to 100 scale, 0 no effect, 100 complete control
[20] = Preemergence, 62 g ai/ha, scale 0 to 100
[21] = 16 g ai/ha, scale 0 to 100 (0 no effect, 100 complete control)
[22] = 31 g ai/ha, 0 to 100 scale, 0 no effect, 100 complete control
[23] = Flood (flooded paddy test), 62 g ai/ha, scale 0 to 100, 0 no effect, 100 complete control
[24] = Flood (flooded paddy test), 125 g ai/ha, scale 0 to 100, 0 no effect, 100 complete control
[25] = Flood (flooded paddy test), 250 g ai/ha, scale 0 to 100, 0 no effect, 100 complete control
[26] = Flood, 31 g ai/ha, scale 0 to 100

SMILES: Cn1ncc(O)c(-c2nn(-c3ccc(Cl)cc3)cc2Cl)c1=O [Compound 28]
- Foxtail, Green plant response rating ([1]; postemergence, 0-100 scale): 60
- Plant response rating, Foxtail, Green [1, 15]: 65
- Plant response rating, Foxtail, Green [1, 16]: 98
- Plant response rating, Foxtail, Green [1, 17]: 100
- Plant response rating, Foxtail, Green [1, 18]: 100
- Plant response rating, Foxtail, Green [1, 19]: 100
- Plant response rating, Foxtail, Green [1, 20]: 100
- Foxtail, Green plant response rating ([1]; Preemergence, scale 0 to 100): 30
- Crabgrass, Large plant response rating ([2]; postemergence, 0-100 scale): 60
- Plant response rating, Crabgrass, Large [2, 15]: 75
- Plant response rating, Crabgrass, Large [2, 16]: 80
- Plant response rating, Crabgrass, Large [2, 17]: 98
- Plant response rating, Crabgrass, Large [2, 18]: 98
- Plant response rating, Crabgrass, Large [2, 19]: 100
- Plant response rating, Crabgrass, Large [2, 20]: 100
- Crabgrass, Large plant response rating ([2]; Preemergence, scale 0 to 100): 65
- Johnsongrass plant response rating ([3]; postemergence, 0-100 scale): 20
- Plant response rating, Johnsongrass [3, 15]: 65
- Plant response rating, Johnsongrass [3, 16]: 75
- Plant response rating, Johnsongrass [3, 17]: 98
- Plant response rating, Johnsongrass [3, 18]: 85
- Plant response rating, Johnsongrass [3, 19]: 98
- Plant response rating, Johnsongrass [3, 20]: 100
- Johnsongrass plant response rating ([3]; Preemergence, scale 0 to 100): 70
- Pigweed plant response rating ([4]; postemergence, 0-100 scale): 0
- Plant response rating, Pigweed [4, 15]: 0
- Plant response rating, Pigweed [4, 16]: 0
- Plant response rating, Pigweed [4, 17]: 0
- Plant response rating, Pigweed [4, 18]: 0
- Plant response rating, Pigweed [4, 19]: 0
- Plant response rating, Pigweed [4, 20]: 0
- Pigweed plant response rating ([4]; Preemergence, scale 0 to 100): 0
- Ragweed plant response rating ([5]; postemergence, 0-100 scale): 0
- Plant response rating, Ragweed [5, 15]: 0
- Plant response rating, Ragweed [5, 16]: 0
- Plant response rating, Ragweed [5, 17]: 0
- Plant response rating, Ragweed [5, 18]: 0
- Plant response rating, Ragweed [5, 19]: 0
- Plant response rating, Ragweed [5, 20]: 0
- Ragweed plant response rating ([5]; Preemergence, scale 0 to 100): 0
- Velvetleaf plant response rating ([6]; postemergence, 0-100 scale): 0
- Plant response rating, Velvetleaf [6, 15]: 0
- Plant response rating, Velvetleaf [6, 17]: 0
- Plant response rating, Velvetleaf [6, 18]: 0
- Plant response rating, Velvetleaf [6, 19]: 0
- Plant response rating, Velvetleaf [6, 20]: 0
- Velvetleaf plant response rating ([6]; Preemergence, scale 0 to 100): 0
- Plant response rating, Nightshade, E. B. [7, 21]: 0
- Plant response rating, Nightshade, E. B. [7, 22]: 0
- Plant response rating, Nightshade, E. B. ([7]; 62 g ai/ha, scale 0 to 100): 0
- Nightshade, E. B. plant response rating ([7]; 8 g ai/ha, scale 0 to 100): 0
- Cupgrass, Woolly plant response rating ([8]; postemergence, 0-100 scale): 50
- Plant response rating, Cupgrass, Woolly [8, 15]: 55
- Plant response rating, Cupgrass, Woolly [8, 16]: 95
- Plant response rating, Cupgrass, Woolly [8, 17]: 95
- Plant response rating, Cupgrass, Woolly [8, 18]: 30
- Plant response rating, Cupgrass, Woolly [8, 19]: 98
- Plant response rating, Cupgrass, Woolly [8, 20]: 98
- Cupgrass, Woolly plant response rating ([8]; Preemergence, scale 0 to 100): 0
- Goosegrass plant response rating ([9]; postemergence, 0-100 scale): 65
- Plant response rating, Goosegrass [9, 15]: 75
- Plant response rating, Goosegrass [9, 16]: 80
- Plant response rating, Goosegrass [9, 17]: 90
- Plant response rating, Goosegrass [9, 18]: 100
- Plant response rating, Goosegrass [9, 19]: 100
- Plant response rating, Goosegrass [9, 20]: 100
- Goosegrass plant response rating ([9]; Preemergence, scale 0 to 100): 80
- Plant response rating, Sunflower [10, 21]: 0
- Plant response rating, Sunflower [10, 22]: 0
- Plant response rating, Sunflower ([10]; 62 g ai/ha, scale 0 to 100): 0
- Sunflower plant response rating ([10]; 8 g ai/ha, scale 0 to 100): 0
- Oat, Wild plant response rating ([11]; postemergence, 0-100 scale): 45
- Plant response rating, Oat, Wild [11, 15]: 80
- Plant response rating, Oat, Wild [11, 16]: 95
- Plant response rating, Oat, Wild [11, 17]: 98
- Plant response rating, Oat, Wild [11, 18]: 50
- Plant response rating, Oat, Wild [11, 19]: 70
- Plant response rating, Oat, Wild [11, 20]: 90
- Oat, Wild plant response rating ([11]; Preemergence, scale 0 to 100): 0
- Foxtail, Giant plant response rating ([12]; postemergence, 0-100 scale): 65
- Plant response rating, Foxtail, Giant [12, 15]: 80
- Plant response rating, Foxtail, Giant [12, 16]: 95
- Plant response rating, Foxtail, Giant [12, 17]: 100
- Plant response rating, Foxtail, Giant [12, 18]: 98
- Plant response rating, Foxtail, Giant [12, 19]: 100
- Plant response rating, Foxtail, Giant [12, 20]: 100
- Foxtail, Giant plant response rating ([12]; Preemergence, scale 0 to 100): 60
- Plant response rating, Rice [13, 23]: 0
- Plant response rating, Rice [13, 24]: 0
- Plant response rating, Rice [13, 25]: 60
- Plant response rating, Rice [13, 26]: 0
- Plant response rating, Ducksalad [14, 23]: 0
- Plant response rating, Ducksalad [14, 24]: 0
- Plant response rating, Ducksalad [14, 25]: 0
- Plant response rating, Ducksalad [14, 26]: 0
